Activity calls are given as the source filed them. The rule behind the calls is not given here.
Legend:
[1] = Haemolytic activity in human erythrocytes assessed as induction of hemolysis at 10 mM after 30 mins relative to H202; type: cell-based, Erythrocyte; conditions: read-out: Activity
[2] = Haemolytic activity in human erythrocytes assessed as induction of hemolysis at 5 mM after 30 mins relative to H202; type: cell-based, Erythrocyte; conditions: read-out: Activity
[3] = Haemolytic activity in human erythrocytes assessed as induction of hemolysis at 2.5 mM after 30 mins relative to H202; type: cell-based, Erythrocyte; conditions: erythrocytes, read-out: Activity
Erythrocyte [4] = assay: (§1) Haemolytic activity in human erythrocytes assessed as induction of hemolysis at 1.25 mM after 30 mins relative to H202; type: cell-based; conditions: erythrocyte, 0.5 h, 1250 µM
Erythrocyte [5] = assay: (§2) Haemolytic activity in human erythrocytes assessed as induction of hemolysis at 0.625 mM after 30 mins relative to H202; type: cell-based; conditions: erythrocyte, 0.5 h, 625 µM
[6] = Antioxidant activity assessed as DPPH radical scavenging activity incubated in dark for 30 mins by spectrophotometric method relative to ascorbic acid; type: functional
[7] = Antioxidant activity assessed as ABTS radical scavenging activity by spectrophotometric method relative to ascorbic acid; type: functional
WI-38 = assay: Cytotoxicity activity against human WI38 cells assessed as reduction in cell viability measured after 48 hrs by MTT assay; type: cell-based; conditions: WI-38, 48 h
[8] = (§3) Selectivity index, ratio of IC50 for human WI38 cells to GI50 for human NCI60 cells
K562 = assay: Antiproliferative activity against human K562 cells assessed as growth inhibition after 48 hrs by sulforhodamine B assay; type: functional, cell-based; conditions: K562, 48 h
[9] = as §1; type: cell-based, Erythrocyte; conditions: erythrocytes, read-out: Activity
[10] = as §2; type: cell-based, Erythrocyte; conditions: erythrocytes, read-out: Activity
[11] = Antioxidant activity assessed as DPPH radical scavenging activity incubated in dark for 30 mins by spectrophotometric method relative to control; type: functional; design: concentration or dose not given beside the values
[12] = Antioxidant activity assessed as ABTS radical scavenging activity by spectrophotometric analysis relative to control; type: functional; design: concentration or dose not given beside the values; conditions: dose or concentration not given here
[13] = Antioxidant activity assessed as hydroxyl radical scavenging activity after 1 hr by salicylic acid-based Fenton reaction assay; type: functional
[14] = Pro-oxidant activity assessed as increase in bleomycin-Fe2+ induced calf thymus DNA damage at 2 mM after 1 hr by thiobarbituric acid based absorbance analysis
HCT-116 [15] = assay: Induction of apoptosis in human HCT116 cells assessed as increase in caspase 3 mRNA expression at 100 nM after 6 hrs hrs by SYBR green dye-based qRT-PCR analysis relative to control; type: functional
HCT-116 [16] = assay: Induction of apoptosis in human HCT116 cells assessed as increase in caspase 9 mRNA expression at 100 nM after 6 hrs hrs by SYBR green dye-based qRT-PCR analysis relative to control; type: functional
HCT-116 [17] = assay: Induction of apoptosis in human HCT116 cells assessed as increase in p53 mRNA expression at 100 nM after 6 hrs hrs by SYBR green dye-based qRT-PCR analysis relative to control; type: functional
HCT-116 [18] = assay: […] in CDK1 mRNA expression in human HCT116 cells at 100 nM after 6 hrs hrs by SYBR green dye-based qRT-PCR analysis relative to control; type: functional
Homo sapiens = species: Homo sapiens; assay: as §3
HCT-116 [19] = assay: Reduction in CDK1 mRNA expression in human HCT116 cells at 100 nM after 6 hrs hrs by SYBR green dye-based qRT-PCR analysis relative to control; type: functional; conditions: HCT-116, 6 h

O=C1O[C@H]([C@@H](O)CO)C(O)=C1O [ASCORBIC ACID]
hemolysis at 0.5 h, 10000 µM [1]: 16.3% | hemolysis at 0.5 h, 5000 µM [2]: 8% | hemolysis at 0.5 h, 2500 µM [3]: 4% | Activity (Erythrocyte [4]): Non-Toxic | Activity (Erythrocyte [5]): Non-Toxic | fold change (FC) [6]: 1 | fold change (FC) [7]: 1

COc1ccc(-c2ccc(-c3ccc(C(=N)N)s3)s2)cc1
IC50 (WI-38): 12.9 µM | Selectivity Index [8]: 43 | IC50 (K562; read-out: IC50): 0.00018 mM | IC50 (K562; read-out: pIC50 (converted)): 19.5 mM | hemolysis at 0.5 h, 10000 µM [1]: 92.7% | hemolysis at 0.5 h, 5000 µM [2]: 63.7% | hemolysis at 0.5 h, 2500 µM [3]: 41% | hemolysis at 0.5 h, 1250 µM [9]: 17.3% | hemolysis at 0.5 h, 625 µM [10]: 4% | inhibition [11]: 51.9% | fold change (FC) [6]: 0.6 | inhibition [12]: 59.2% | fold change (FC) [7]: 0.6 | Activity [13]: Active | Activity [14]: Active | fold change (FC) (HCT-116 [15]): 2.51 | fold change (FC) (HCT-116 [16]): 2.38 | fold change (FC) (HCT-116 [17]): 1.06 | fold change (FC) (HCT-116 [18]): 0.91

O=c1[nH]cc(F)c(=O)[nH]1 [FLUOROURACIL]
IC50 (WI-38): 8.4 µM | Selectivity Index (Homo sapiens): inactive | fold change (FC) (HCT-116 [15]): 3.92 | fold change (FC) (HCT-116 [16]): 4.53 | fold change (FC) (HCT-116 [17]): 1.48 | fold change (FC) (HCT-116 [18]): 0.48 | inhibition at 0.1 µM (HCT-116 [19]): 50 to 52%

COc1cccc(-c2ccc(-c3ccc(C(=N)N)s3)s2)c1
IC50 (WI-38): 77.2 µM | Selectivity Index [8]: 148.4 | IC50 (K562; read-out: IC50): 0.00018 mM | IC50 (K562; read-out: pIC50 (converted)): 19.5 mM | hemolysis at 0.5 h, 10000 µM [1]: 79% | hemolysis at 0.5 h, 5000 µM [2]: 39% | hemolysis at 0.5 h, 2500 µM [3]: 16.1% | hemolysis at 0.5 h, 1250 µM [9]: 3.1% | Activity (Erythrocyte [5]): Non-Toxic | inhibition [11]: 47.5% | fold change (FC) [6]: 0.5 | inhibition [12]: 58.2% | fold change (FC) [7]: 0.6 | Activity [13]: Active | Activity [14]: Active | fold change (FC) (HCT-116 [15]): 3.71 | fold change (FC) (HCT-116 [16]): 1.01 | fold change (FC) (HCT-116 [17]): 0.89 | fold change (FC) (HCT-116 [18]): 0.93

N=C(N)c1ccc(-c2ccc(-c3ccccc3)s2)s1
IC50 (WI-38): 49.1 µM | Selectivity Index [8]: 38.3 | IC50 (K562; read-out: IC50): 0.00024 mM | IC50 (K562; read-out: pIC50 (converted)): 38 mM | hemolysis at 0.5 h, 10000 µM [1]: 85.1% | hemolysis at 0.5 h, 5000 µM [2]: 56.7% | hemolysis at 0.5 h, 2500 µM [3]: 15.3% | Activity (Erythrocyte [4]): Non-Toxic | Activity (Erythrocyte [5]): Non-Toxic | inhibition [11]: 53% | fold change (FC) [6]: 0.6 | inhibition [12]: 61.7% | fold change (FC) [7]: 0.7 | Activity [13]: Active | Activity [14]: Active | fold change (FC) (HCT-116 [15]): 2.39 | fold change (FC) (HCT-116 [16]): 2.47 | fold change (FC) (HCT-116 [17]): 1.1 | fold change (FC) (HCT-116 [18]): 0.88

Source: ChEMBL document CHEMBL4346657, “Anticancer activity, dual prooxidant/antioxidant effect and apoptosis induction profile of new bichalcophene-5-carboxamidines” (Eur J Med Chem, 2019)
